What was measured:
[1] = biological target: T1, von Hippel-Lindau disease tumor suppressor/Son of sevenless homolog 1 (Homo sapiens, UniProt Q07889+P40337); assay: Protac activity at VHL/SOS1 in human PANC-1 cells assessed as SOS1 degradation at 10 uM by Western blotting analysis relative to control; assay type: cell-based
Target sequence in this assay (P40337 whole entry, looked up): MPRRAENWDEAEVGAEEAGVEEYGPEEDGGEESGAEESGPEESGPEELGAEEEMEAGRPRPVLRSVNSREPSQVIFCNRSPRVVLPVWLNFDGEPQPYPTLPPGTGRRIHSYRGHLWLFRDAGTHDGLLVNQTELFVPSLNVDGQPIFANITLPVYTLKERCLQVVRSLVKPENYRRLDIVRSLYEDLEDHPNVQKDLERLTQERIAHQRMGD
Target sequence in this assay (Q07889 whole entry, looked up): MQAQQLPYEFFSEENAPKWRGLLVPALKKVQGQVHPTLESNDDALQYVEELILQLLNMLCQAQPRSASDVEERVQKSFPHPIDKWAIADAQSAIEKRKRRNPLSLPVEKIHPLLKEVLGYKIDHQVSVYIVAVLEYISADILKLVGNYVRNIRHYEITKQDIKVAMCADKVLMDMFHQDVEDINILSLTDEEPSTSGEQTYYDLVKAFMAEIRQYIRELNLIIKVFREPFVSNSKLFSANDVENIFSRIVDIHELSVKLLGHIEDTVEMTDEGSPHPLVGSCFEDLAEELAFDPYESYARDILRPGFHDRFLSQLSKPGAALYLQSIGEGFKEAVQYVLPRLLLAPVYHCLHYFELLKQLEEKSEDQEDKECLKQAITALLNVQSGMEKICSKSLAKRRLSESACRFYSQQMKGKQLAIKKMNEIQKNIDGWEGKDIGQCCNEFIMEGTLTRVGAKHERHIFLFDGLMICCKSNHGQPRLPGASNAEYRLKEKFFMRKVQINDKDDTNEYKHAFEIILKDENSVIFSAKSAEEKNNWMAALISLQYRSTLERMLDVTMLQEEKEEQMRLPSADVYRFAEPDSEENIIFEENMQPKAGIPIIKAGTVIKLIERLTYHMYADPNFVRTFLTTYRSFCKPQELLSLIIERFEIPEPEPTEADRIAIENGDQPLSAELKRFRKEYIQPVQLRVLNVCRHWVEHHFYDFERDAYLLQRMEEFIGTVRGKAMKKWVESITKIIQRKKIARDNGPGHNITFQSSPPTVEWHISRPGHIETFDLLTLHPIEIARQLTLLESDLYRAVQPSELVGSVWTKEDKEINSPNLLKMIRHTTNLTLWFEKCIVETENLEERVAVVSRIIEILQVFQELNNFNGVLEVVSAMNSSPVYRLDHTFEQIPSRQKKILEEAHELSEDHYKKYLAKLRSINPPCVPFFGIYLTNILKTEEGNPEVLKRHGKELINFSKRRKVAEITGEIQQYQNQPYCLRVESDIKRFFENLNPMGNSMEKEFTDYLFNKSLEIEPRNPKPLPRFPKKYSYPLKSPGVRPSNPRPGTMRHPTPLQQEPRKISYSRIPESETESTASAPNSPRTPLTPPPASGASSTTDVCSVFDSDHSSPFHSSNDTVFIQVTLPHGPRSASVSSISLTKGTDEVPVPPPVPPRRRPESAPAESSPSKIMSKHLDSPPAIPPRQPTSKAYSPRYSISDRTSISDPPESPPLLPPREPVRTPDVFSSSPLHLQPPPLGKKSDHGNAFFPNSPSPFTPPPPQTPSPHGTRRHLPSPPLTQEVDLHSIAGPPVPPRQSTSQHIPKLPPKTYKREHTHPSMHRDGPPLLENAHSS

[2] = biological target: T1, von Hippel-Lindau disease tumor suppressor/Son of sevenless homolog 1; assay: Protac activity at VHL/SOS1 in human PANC-1 cells assessed as SOS1 degradation at 1 uM by Western blotting analysis relative to control; assay type: cell-based
Target sequence in this assay (P40337 whole entry, looked up): as the sequence (P40337 whole entry, looked up) above
Target sequence in this assay (Q07889 whole entry, looked up): as the sequence (Q07889 whole entry, looked up) above

[3] = biological target: T1, von Hippel-Lindau disease tumor suppressor/Son of sevenless homolog 1; assay: Protac activity at VHL/SOS1 in human K562 cells assessed as SOS1 degradation at 1 uM by Western blotting analysis relative to control; assay type: cell-based
Target sequence in this assay (P40337 whole entry, looked up): as the sequence (P40337 whole entry, looked up) above
Target sequence in this assay (Q07889 whole entry, looked up): as the sequence (Q07889 whole entry, looked up) above

[4] = biological target: T1, von Hippel-Lindau disease tumor suppressor/Son of sevenless homolog 1; assay: Protac activity at VHL/SOS1 in human K562 cells assessed as SOS1 degradation at 10 uM by Western blotting analysis relative to control; assay type: cell-based
Target sequence in this assay (P40337 whole entry, looked up): as the sequence (P40337 whole entry, looked up) above
Target sequence in this assay (Q07889 whole entry, looked up): as the sequence (Q07889 whole entry, looked up) above

[5] = biological target: T2, Protein cereblon/Son of sevenless homolog 1 (Homo sapiens) (UniProt Q07889+Q96SW2); assay: Protac activity at CRBN/SOS1 in human K562 cells assessed as SOS1 degradation at 10 uM by Western blotting analysis relative to control; assay type: cell-based
[6] = biological target: T2, Protein cereblon/Son of sevenless homolog 1 (Homo sapiens); assay: Protac activity at CRBN/SOS1 in human PANC-1 cells assessed as SOS1 degradation at 10 uM by Western blotting analysis relative to control; assay type: cell-based
[7] = biological target: T2, Protein cereblon/Son of sevenless homolog 1 (Homo sapiens); assay: Protac activity at CRBN/SOS1 in human PANC-1 cells assessed as SOS1 degradation at 1 uM by Western blotting analysis; assay type: cell-based
[8] = biological target: T2, Protein cereblon/Son of sevenless homolog 1 (Homo sapiens); assay: Protac activity at CRBN/SOS1 in human K562 cells assessed as SOS1 degradation at 1 uM by Western blotting analysis relative to control; assay type: cell-based
[9] = biological target: T1, von Hippel-Lindau disease tumor suppressor/Son of sevenless homolog 1; assay: Protac activity at VHL/SOS1 in human PANC-1 cells assessed as SOS1 degradation incubated for 24 hrs by Western blotting analysis; assay type: cell-based
[10] = biological target: T1, von Hippel-Lindau disease tumor suppressor/Son of sevenless homolog 1; assay: Protac activity at VHL/SOS1 in human NCI-H358 cells assessed as SOS1 degradation incubated for 24 hrs by Western blotting analysis; assay type: cell-based
[11] = biological target: T1, von Hippel-Lindau disease tumor suppressor/Son of sevenless homolog 1; assay: Protac activity at VHL/SOS1 in human MIA PaCa-2 cells assessed as SOS1 degradation incubated for 24 hrs by Western blotting analysis; assay type: cell-based
[12] = biological target: T1, von Hippel-Lindau disease tumor suppressor/Son of sevenless homolog 1; assay: Protac activity at VHL/SOS1 in human K562 cells assessed as SOS1 degradation incubated for 24 hrs by Western blotting analysis; assay type: cell-based
MIA PaCa-2 = assay: Antiproliferative activity against human MIA PaCa-2 cells incubated for 72 hrs by CCK8 assay; assay type: functional, cell-based; settings: MIA PaCa-2, 72 h
K562 = assay: Antiproliferative activity against human K562 cells incubated for 72 hrs by CCK8 assay; assay type: functional, cell-based; settings: K562, 72 h

T2 sequence (Q07889 whole entry, looked up): as above
T2 sequence (Q96SW2 whole entry, looked up): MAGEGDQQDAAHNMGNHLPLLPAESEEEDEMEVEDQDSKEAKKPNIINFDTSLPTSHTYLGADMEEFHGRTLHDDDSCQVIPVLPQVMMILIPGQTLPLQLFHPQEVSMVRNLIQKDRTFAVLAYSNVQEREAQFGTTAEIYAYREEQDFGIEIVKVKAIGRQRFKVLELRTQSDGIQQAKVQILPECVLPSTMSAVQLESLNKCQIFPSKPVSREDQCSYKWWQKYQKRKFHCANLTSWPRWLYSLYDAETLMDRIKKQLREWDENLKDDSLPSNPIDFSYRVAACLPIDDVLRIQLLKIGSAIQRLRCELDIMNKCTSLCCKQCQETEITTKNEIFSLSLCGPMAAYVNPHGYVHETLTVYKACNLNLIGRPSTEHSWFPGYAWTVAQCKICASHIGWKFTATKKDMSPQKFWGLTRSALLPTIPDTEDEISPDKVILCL

Row | Compound | Activity [1] | Activity [2] | Activity [3] | Activity [4] | further results
1 | COc1cc2nc(C)nc(N[C@H](C)c3cc(-c4ccccc4CNCCCCCC(=O)N[C@H](C(=O)N4C[C@H](O)C[C@H]4C(=O)NCc4ccc(-c5scnc5C)cc4)C(C)(C)C)cs3)c2cc1OC | 11% | 13.2% | 0% | 0% | 
2 | COc1cc2nc(C)nc(N[C@H](C)c3cc(-c4ccccc4CNCC4CCN(CC5CCN(C(=O)CC(=O)N[C@H](C(=O)N6C[C@H](O)C[C@H]6C(=O)NCc6ccc(-c7scnc7C)cc6)C(C)(C)C)CC5)CC4)cs3)c2cc1OC | 19.6% | 23% | 0% | 0% | 
3 | COc1cc2nc(C)nc(N[C@H](C)c3cc(-c4ccccc4CNCCCCCCCCCC(=O)N[C@H](C(=O)N4C[C@H](O)C[C@H]4C(=O)NCc4ccc(-c5scnc5C)cc4)C(C)(C)C)cs3)c2cc1OC | 5.8% | 0% | 0% | 25.3% | 
4 | COc1cc2nc(C)nc(N[C@H](C)c3cc(N)cc(C(F)(F)F)c3)c2cc1OCCCCCCCC(=O)N[C@H](C(=O)N1C[C@H](O)C[C@H]1C(=O)NCc1ccc(-c2scnc2C)cc1)C(C)(C)C | 0% | 28.8% | 0% | 0% | 
5 | CNCc1ccccc1-c1csc([C@@H](C)Nc2nc(C)nc3cc(OC)c(OCCCCCCCC(=O)N[C@H](C(=O)N4C[C@H](O)C[C@H]4C(=O)NCc4ccc(-c5scnc5C)cc4)C(C)(C)C)cc23)c1 | 14.3% | 0% | 27% |  | 
6 | COc1cc2nc(C)nc(C[C@H](C)c3cc(-c4ccccc4CNCCCCCCCCCNc4ccc5c(c4)C(=O)N(C4CCC(=O)NC4=O)C5=O)cs3)c2cc1OC (stereo partly specified) |  |  |  |  | Activity [5]: 89.1%; Activity [6]: 0%; Activity [7]: 10.3%; Activity [8]: 0%
7 | COc1cc2nc(C)nc(N[C@H](C)c3cc(-c4ccccc4CNCCCCCCCCNc4ccc5c(c4)C(=O)N(C4CCC(=O)NC4=O)C5=O)cs3)c2cc1OC (stereo partly specified) |  |  |  |  | Activity [5]: 46.7%; Activity [6]: 0%; Activity [7]: 1.3%; Activity [8]: 35.6%
8 | COc1cc2nc(C)nc(N[C@H](C)c3cc(-c4ccccc4CNCCCCCCNc4ccc5c(c4)C(=O)N(C4CCC(=O)NC4=O)C5=O)cs3)c2cc1OC (stereo partly specified) |  |  |  |  | Activity [5]: 37.7%; Activity [6]: 0%; Activity [7]: 0%; Activity [8]: 0%
9 | COc1cc2nc(C)nc(N[C@H](C)c3cc(N)cc(C(F)(F)F)c3)c2cc1OCCCCCCCCCC(=O)N[C@H](C(=O)N1C[C@H](O)C[C@H]1C(=O)NCc1ccc(-c2scnc2C)cc1)C(C)(C)C | 0% | 48.3% | 0% | 0% | 
10 | CNCc1ccccc1-c1csc([C@@H](C)Nc2nc(C)nc3cc(OC)c(OCCCCCCC(=O)N[C@H](C(=O)N4C[C@H](O)C[C@H]4C(=O)NCc4ccc(-c5scnc5C)cc4)C(C)(C)C)cc23)c1 | 0% | 0% | 28.1% | 21.8% | 
11 | CNCc1ccccc1-c1csc([C@@H](C)Nc2nc(C)nc3cc(OC)c(OCCCCCCCCC(=O)N[C@H](C(=O)N4C[C@H](O)C[C@H]4C(=O)NCc4ccc(-c5scnc5C)cc4)C(C)(C)C)cc23)c1 | 0% | 0% | 34.7% |  | 
12 | COc1cc2nc(C)nc(N[C@H](C)c3cc(-c4ccccc4CNCCC4CCN(C(=O)CC(=O)N[C@H](C(=O)N5C[C@H](O)C[C@H]5C(=O)NCc5ccc(-c6scnc6C)cc5)C(C)(C)C)CC4)cs3)c2cc1OC | 0% | 0% | 0% | 0% | 
13 | COc1cc2nc(C)nc(N[C@H](C)c3cc(-c4ccccc4CNCCCCCCCC(=O)N[C@H](C(=O)N4C[C@H](O)C[C@H]4C(=O)NCc4ccc(-c5scnc5C)cc4)C(C)(C)C)cs3)c2cc1OC | 12.7% | 0% | 27.4% | 58.9% | 
14 | COc1cc2nc(C)nc(N[C@H](C)c3cc(-c4ccccc4CNCCCCCCCNc4ccc5c(c4)C(=O)N(C4CCC(=O)NC4=O)C5=O)cs3)c2cc1OC (stereo partly specified) |  |  |  |  | Activity [5]: 72.1%; Activity [6]: 3.4%; Activity [7]: 0%; Activity [8]: 35.4%
15 | COc1cc2nc(C)nc(N[C@H](C)c3cc(-c4ccccc4CNCCCCCCCCC(=O)N[C@H](C(=O)N4C[C@H](O)C[C@H]4C(=O)NCc4ccc(-c5scnc5C)cc4)C(C)(C)C)cs3)c2cc1OC | 24.4% | 0% | 0% | 31.6% | 
16 | COc1cc2nc(C)nc(N[C@H](C)c3cc(-c4ccccc4CNCCCCCCC(=O)N[C@H](C(=O)N4C[C@H](O)C[C@H]4C(=O)NCc4ccc(-c5scnc5C)cc4)C(C)(C)C)cs3)c2cc1OC | 75.1% | 44% | 18.9% | 80.1% | Activity [9]: Dose-Dependent Effect; DC50 [9]: 701 nM; Activity [10]: Dose-Dependent Effect; DC50 [10]: 910 nM; Activity [11]: Dose-Dependent Effect; DC50 [11]: 870 nM; Activity [12]: Dose-Dependent Effect; DC50 [12]: 776 nM
17 | CNCc1ccccc1-c1csc([C@@H](C)Nc2nc(C)nc3cc(OC)c(C4=CCN(C(=O)CCCCC(=O)N[C@H](C(=O)N5C[C@H](O)C[C@H]5C(=O)NCc5ccc(-c6scnc6C)cc5)C(C)(C)C)CC4)cc23)c1 | 30.2% | 0% | 16.6% | 28.3% | 
18 | COc1cc2nc(C)nc(N[C@H](C)c3cc(N)cc(C(F)(F)F)c3)c2cc1O[C@H]1CCOC1 |  |  |  |  | IC50 (MIA PaCa-2): 29 nM; IC50 (K562): 1420 nM

Now from value to compound, other results behind:

Row | Activity [1] | Activity [2] | Activity [3] | Activity [4] | Compound | further results
19 | 0% | 26% | 0% | 0% | COc1cc2nc(C)nc(N[C@H](C)c3cc(-c4ccccc4CNCC4CCN(C(=O)CC(=O)N[C@H](C(=O)N5C[C@H](O)C[C@H]5C(=O)NCc5ccc(-c6scnc6C)cc5)C(C)(C)C)CC4)cs3)c2cc1OC | 
20 | 0% | 0% | 22.5% | 0% | CNCc1ccccc1-c1csc([C@@H](C)Nc2nc(C)nc3cc(OC)c(OCCCCCC(=O)N[C@H](C(=O)N4C[C@H](O)C[C@H]4C(=O)NCc4ccc(-c5scnc5C)cc4)C(C)(C)C)cc23)c1 | 
21 | 0% | 8.8% | 27.5% | 32.9% | CNCc1ccccc1-c1csc([C@@H](C)Nc2nc(C)nc3cc(OC)c(OCCCCC(=O)N[C@H](C(=O)N4C[C@H](O)C[C@H]4C(=O)NCc4ccc(-c5scnc5C)cc4)C(C)(C)C)cc23)c1 | 
22 | 0% | 8.4% | 2.3% | 18.7% | CNCc1ccccc1-c1csc([C@@H](C)Nc2nc(C)nc3cc(OC)c(C4=CCN(C(=O)CCCC(=O)N[C@H](C(=O)N5C[C@H](O)C[C@H]5C(=O)NCc5ccc(-c6scnc6C)cc5)C(C)(C)C)CC4)cc23)c1 | 
23 | 21.5% | 28.2% | 0% | 0% | COc1cc2nc(C)nc(N[C@H](C)c3cc(N)cc(C(F)(F)F)c3)c2cc1OCCCCCCCCC(=O)N[C@H](C(=O)N1C[C@H](O)C[C@H]1C(=O)NCc1ccc(-c2scnc2C)cc1)C(C)(C)C | 
24 | 49.8% | 29.1% | 0% | 0% | COc1cc2nc(C)nc(N[C@H](C)c3cc(-c4ccccc4CNCCCN4CCC(C(=O)N[C@H](C(=O)N5C[C@H](O)C[C@H]5C(=O)NCc5ccc(-c6scnc6C)cc5)C(C)(C)C)CC4)cs3)c2cc1OC | 
25 | 3.4% | 27% | 0% | 0% | COc1cc2nc(C)nc(N[C@H](C)c3cc(N)cc(C(F)(F)F)c3)c2cc1OCCCCCCC(=O)N[C@H](C(=O)N1C[C@H](O)C[C@H]1C(=O)NCc1ccc(-c2scnc2C)cc1)C(C)(C)C | 
26 | 0% | 5.6% | 18.9% | 6.7% | CNCc1ccccc1-c1csc([C@@H](C)Nc2nc(C)nc3cc(OC)c(C4=CCN(C(=O)CCC(=O)N[C@H](C(=O)N5C[C@H](O)C[C@H]5C(=O)NCc5ccc(-c6scnc6C)cc5)C(C)(C)C)CC4)cc23)c1 | 
27 | 0% | 0% | 0% | 0% | COc1cc2nc(C)nc(N[C@H](C)c3cc(N)cc(C(F)(F)F)c3)c2cc1OCCCC(=O)N[C@H](C(=O)N1C[C@H](O)C[C@H]1C(=O)NCc1ccc(-c2scnc2C)cc1)C(C)(C)C | 
28 | 0% | 0% | 0% | 0% | COc1cc2nc(C)nc(N[C@H](C)c3cc(N)cc(C(F)(F)F)c3)c2cc1OCCCCCC(=O)N[C@H](C(=O)N1C[C@H](O)C[C@H]1C(=O)NCc1ccc(-c2scnc2C)cc1)C(C)(C)C | 

Reference: ChEMBL document CHEMBL5528047, “A Potent SOS1 PROTAC Degrader with Synergistic Efficacy in Combination with KRASG12C Inhibitor” (J Med Chem, 2024)
